Molecules are shown by their SMILES.

One experiment deals with T1, integrin αVβ3 (Homo sapiens, UniProt P05106+P06756).
T1 construct: using the isolated extracellular domain of integrins αVβ3 and α5β1; purchased Sino Biological
As to the kind of experiment: ELISA-like competitive integrin binding assay (vitronectin-coated plates).
Conditions: not given
The method, then:
(§1) An ELISA-like assay using the isolated extracellular domain of integrins αVβ3 and α5β1 was performed in flat-bottom 96-well immuno plates (Brand) to determine the activities of the synthesized compounds. All wells were coated overnight with the native integrin ligand vitronectin or fibronectin (1) (Table 1) in a carbonate buffer (150 µl/well), followed by washing of each well with the PBS-T buffer (3 × 200 µl/well) (Table 1) and blocking for 1 h with the TS-B buffer (150 µl/well) at RT. […] The protein-coated assay plate was washed with the PBS-T buffer (3 × 200 µl/well), and 50 µl of the dilution series was transferred to the assay plate wells B–G. The TS-B buffer was filled into row A (100 µl/well) as the negative control and row H (50 µl/well) as the positive control. Afterward, the corresponding human integrin (2, 50 µl/well) (Table 1) in the TS-B buffer was added to row B–H and incubated for 1 h at RT. After washing the assay plate with the PBS-T buffer (3 × 200 µl/well), the primary antibody (3, 100 µl/well) (Table 1) was transferred to each well and incubated for 1 h at RT. Then the plate was washed with the PBS-T buffer (3 × 200 µl/well), treated with the secondary antibody (4, 100 µl/well) (Table 1), and incubated for 1 h at RT. The plate was washed with the PBS-T buffer (3 × 200 µl/well), and SeramunBlau® fast2 (Seramun Diagnostics GmbH, 50 µl/well) was added to each well. Staining was stopped with 3 M aq. […] The absorbance was measured with a plate reader at 450 nm and corrected by subtraction of the absorbance at 620 nm. Afterward, the resulting values were plotted and analyzed using OriginPro® 2020b where the inflection point of a DoseResp fit describes the IC50 value. All compounds were tested in duplicates or triplicates for both integrins.
(§2) The affinities (Table 4) of the RGD mimetics (Table 3) toward the integrins αVβ3 and α5β1 were determined in a competitive enzyme-linked immunosorbent assay (ELISA) using recombinant human integrins with the native ligands vitronectin and fibronectin as described in the literature ([Mas-Moruno et al., 2016b]). […]
(§3) Table S1: Proteins and buffers applied in the ELISA-like assay.
(§4) An ELISA-like assay using the isolated extracellular domain of integrins αVβ3 and α5β1 was performed in flat-bottom 96-well immuno plates (Brand) to determine the activities of the synthesised compounds.
(§5) All wells were coated overnight with the native integrin ligand vitronectin or fibronectin (Table S1, (1)) in carbonate buffer (150 µL/well), followed by washing of each well with PBS-T buffer (3×200 µL/well) (Table S1) and blocking for 1 h with TS-B buffer (150 µL/well) at RT. A dilution […]
(§6) 1:10 dilution) in TS-B buffer. The protein-coated assay plate was washed with PBS-T buffer (3×200 µL/well) and 50 µL of the dilution series was transferred to the assay plate wells B-G. TS-B buffer was filled into row A (100 µL/well) as negative control and row H (50 µL/well) as positive control. Afterwards, the corresponding human integrin (2, 50 µL/well)) (Table S1) in TS-B buffer was added to row B-H and incubated for 1 h at RT. After washing the assay plate with PBS-T buffer (3×200 µL/well) the primary antibody (3, 100 µL/well) (Table S1) was transferred to each well and incubated for 1 h at RT. Then the plate was washed with PBS-T buffer (3×200 µL/well), treated with […]
In general terms: ELISA stands for enzyme-linked immunosorbent assay.
Broadly, the IC50 is the midpoint of a concentration-inhibition curve. A lower IC50 goes with greater potency in that assay. For the molecule `O=C(N[C@@H](Cc1ccc(OCCCCCNC2=NCCCN2)cc1)C(=O)O)c1ccc(O)cc1` [7bc], the IC50 came out at 36.4 ± 14.3 nM.

`O=C(N[C@@H](Cc1ccc(OCCCCCNC2=NCCN2)cc1)C(=O)O)c1cccc(O)c1` [7ca] registered an IC50 of 98.1 ± 74.8 nM.

The molecule `O=C(N[C@@H](Cc1ccc(OCCCCCNC2=NCCN2)cc1)C(=O)O)OCc1ccccc1` [7da] registered an IC50 of 3.76 ± 1.98 nM.

Molecule `O=C(N[C@@H](Cc1ccc(OCCCCCNc2ncccn2)cc1)C(=O)O)OCc1ccccc1` [7db] returned an IC50 of 2630 nM. This IC50 lies about 700-fold higher than the previous one.

Turning to `O=C(N[C@@H](Cc1ccc(OCCCCCNC2=NCCCN2)cc1)C(=O)O)OCc1ccccc1` [7dc], the concentration for half-maximal inhibition (IC50) was found to be 2.93 ± 0.12 nM.

With `[N-]=[N+]=NCCOCCOCCOc1ccc(C(=O)N[C@@H](Cc2ccc(OCCCNC3=NCCN3)cc2)C(=O)O)cc1` [10a], the IC50 amounted to 278 ± 69.2 nM.

The molecule `[N-]=[N+]=NCCOCCOCCOc1ccc(C(=O)N[C@@H](Cc2ccc(OCCCCNC3=NCCN3)cc2)C(=O)O)cc1` [10b] displayed a half-inhibitory concentration (IC50) of 129 ± 2.35 nM. Compared with the last molecule, the IC50 is about 2.2-fold lower.

As for `[N-]=[N+]=NCCOCCOCCOc1ccc(C(=O)N[C@@H](Cc2ccc(OCCCCCNC3=NCCN3)cc2)C(=O)O)cc1` [10c], the concentration for half-maximal inhibition (IC50) amounted to 21 ± 5.84 nM.

The experiment is the same for the next values; noted with them: isolated extracellular domain of human integrin αVβ3, ligand vitronectin; Cilengitide as reference on all plates.
The molecule `O=C(NC(Cc1ccc(OCCCNc2ncccn2)cc1)C(=O)O)c1ccccc1` (centres unmarked) [5ab] yielded a concentration for half-maximal inhibition (IC50) of 1310 nM.

Turning to `O=C(N[C@@H](Cc1ccc(OCCCNC2=NCCN2)cc1)C(=O)O)c1ccc(O)cc1` [5ba], the IC50 is 38.8 ± 19.2 nM.

The molecule `O=C(NC(Cc1ccc(OCCCNC2=NCCCN2)cc1)C(=O)O)c1ccc(O)cc1` (centres unmarked) [5bc] displayed a 50% inhibitory concentration (IC50) of 70.4 ± 0.57 nM.

`O=C(NC(Cc1ccc(OCCCCNC2=NCCCN2)cc1)C(=O)O)c1ccccc1` (centres unmarked) [6ac]: the IC50 is 32.8 ± 17.6 nM.

`O=C(NC(Cc1ccc(OCCCCNc2ncccn2)cc1)C(=O)O)c1ccc(O)cc1` (centres unmarked) [6bb] returned a 50% inhibitory concentration (IC50) of 5290 nM.

Regarding `O=C(N[C@@H](Cc1ccc(OCCCCNC2=NCCN2)cc1)C(=O)O)c1cccc(O)c1` [6ca], the IC50 is 1.01 ± 0.56 nM.

Molecule `O=C(NC(Cc1ccc(OCCCCNc2ncccn2)cc1)C(=O)O)c1cccc(O)c1` (centres unmarked) [6cb] registered a 50% inhibitory concentration (IC50) of 1850 ± 241 nM. This IC50 is about 1800-fold higher than that of the molecule before.

Molecule `O=C(NC(Cc1ccc(OCCCCCNc2ncccn2)cc1)C(=O)O)c1ccccc1` (centres unmarked) [7ab] displayed a 50% inhibitory concentration (IC50) of 8770 nM.

The molecule `O=C(NC(Cc1ccc(OCCCCCNC2=NCCN2)cc1)C(=O)O)c1ccc(O)cc1` (centres unmarked) [7ba] yielded an IC50 of 2.01 ± 0.4 nM.

Consider `O=C(NC(Cc1ccc(OCCCCCNc2ncccn2)cc1)C(=O)O)c1cccc(O)c1` (centres unmarked) [7cb], for which the IC50 came to 2890 nM.

The molecule `O=C(N[C@@H](Cc1ccc(OCCCCCNC2=NCCCN2)cc1)C(=O)O)c1cccc(O)c1` [7cc] registered an IC50 of 42.9 ± 9.47 nM.

Another experiment deals with T2, integrin α5β1 (Homo sapiens, UniProt P05556+P08648).
T2 construct: using the isolated extracellular domain of integrins αVβ3 and α5β1; purchased R&D
The experiment is described as follows: ELISA-like competitive integrin binding assay (fibronectin-coated plates).
Conditions: not given
As for the experimental part: as §1, §2, §3, §4, §5, §6
For the molecule `O=C(N[C@@H](Cc1ccc(OCCCCCNC2=NCCCN2)cc1)C(=O)O)c1ccc(O)cc1` [7bc], the IC50 is 103 ± 54.4 nM.

`O=C(N[C@@H](Cc1ccc(OCCCCCNC2=NCCN2)cc1)C(=O)O)c1cccc(O)c1` [7ca] yielded a 50% inhibitory concentration (IC50) of 6080 nM.

On to `O=C(N[C@@H](Cc1ccc(OCCCCCNC2=NCCN2)cc1)C(=O)O)OCc1ccccc1` [7da], for which the IC50 worked out at 7750 nM.

In the case of `O=C(N[C@@H](Cc1ccc(OCCCCCNc2ncccn2)cc1)C(=O)O)OCc1ccccc1` [7db], the IC50 came out at 8360 nM.

Turning to `O=C(N[C@@H](Cc1ccc(OCCCCCNC2=NCCCN2)cc1)C(=O)O)OCc1ccccc1` [7dc], the IC50 is over 10000 nM.

As to `[N-]=[N+]=NCCOCCOCCOc1ccc(C(=O)N[C@@H](Cc2ccc(OCCCNC3=NCCN3)cc2)C(=O)O)cc1` [10a], the IC50 was 40 ± 6.5 nM.

`[N-]=[N+]=NCCOCCOCCOc1ccc(C(=O)N[C@@H](Cc2ccc(OCCCCNC3=NCCN3)cc2)C(=O)O)cc1` [10b]: the half-maximal inhibitory concentration (IC50) came out at 404 ± 282 nM. This IC50 lies about 10-fold higher than the previous one.

For `[N-]=[N+]=NCCOCCOCCOc1ccc(C(=O)N[C@@H](Cc2ccc(OCCCCCNC3=NCCN3)cc2)C(=O)O)cc1` [10c], the 50% inhibitory concentration (IC50) was found to be 136 ± 27.4 nM.

Staying with this experiment, now noted: isolated extracellular domain of human integrin α5β1, ligand fibronectin; Cilengitide as reference on all plates.
Turning to `O=C(NC(Cc1ccc(OCCCNc2ncccn2)cc1)C(=O)O)c1ccccc1` (centres unmarked) [5ab], the concentration for half-maximal inhibition (IC50) is over 10000 nM.

In turn, `O=C(N[C@@H](Cc1ccc(OCCCNC2=NCCN2)cc1)C(=O)O)c1ccc(O)cc1` [5ba] returned a 50% inhibitory concentration (IC50) of 43.4 ± 24.4 nM.

The molecule `O=C(NC(Cc1ccc(OCCCNC2=NCCCN2)cc1)C(=O)O)c1ccc(O)cc1` (centres unmarked) [5bc] yielded an IC50 of 18.5 ± 3.65 nM.

Take `O=C(NC(Cc1ccc(OCCCCNC2=NCCCN2)cc1)C(=O)O)c1ccccc1` (centres unmarked) [6ac]: the half-inhibitory concentration (IC50) came to 17.5 ± 6.76 nM.

For the molecule `O=C(NC(Cc1ccc(OCCCCNc2ncccn2)cc1)C(=O)O)c1ccc(O)cc1` (centres unmarked) [6bb], the IC50 is over 10000 nM.

On to `O=C(N[C@@H](Cc1ccc(OCCCCNC2=NCCN2)cc1)C(=O)O)c1cccc(O)c1` [6ca], for which the IC50 worked out at 19.9 ± 8.7 nM.

For the molecule `O=C(NC(Cc1ccc(OCCCCNc2ncccn2)cc1)C(=O)O)c1cccc(O)c1` (centres unmarked) [6cb], the IC50 was over 10000 nM.

In the case of `O=C(NC(Cc1ccc(OCCCCCNc2ncccn2)cc1)C(=O)O)c1ccccc1` (centres unmarked) [7ab], the concentration for half-maximal inhibition (IC50) is over 10000 nM.

Turning to `O=C(NC(Cc1ccc(OCCCCCNC2=NCCN2)cc1)C(=O)O)c1ccc(O)cc1` (centres unmarked) [7ba], the half-maximal inhibitory concentration (IC50) was 1650 nM.

In turn, `O=C(NC(Cc1ccc(OCCCCCNc2ncccn2)cc1)C(=O)O)c1cccc(O)c1` (centres unmarked) [7cb] returned a half-maximal inhibitory concentration (IC50) of over 10000 nM.

`O=C(N[C@@H](Cc1ccc(OCCCCCNC2=NCCCN2)cc1)C(=O)O)c1cccc(O)c1` [7cc]: the IC50 is 210 ± 44.8 nM.

For the origin of these results see paper PMC9035832, “Synthesis and Evaluation of a Non-Peptide Small-Molecule Drug Conjugate Targeting Integrin αVβ3” (Frontiers in Chemistry, 2022).
